Measurements taken from patent US12516022B2, “Derivatives of aryl hydrocarbon receptor agonists” (AZORA THERAPEUTICS, INC., priority 2021, dated 2026).

Legend:
[1] = Stability of indirubin prodrugs in simulated fluids (FaSSIF, FaSSGF), 24 h at 37° C., UPLC-MS; type: physicochemical
Description: (§1) 10.41 g fasted state simulated intestinal fluid (FaSSIF) buffer concentrate was dissolved in 240.3 g deionized water and 560 mg FaSSIF powder added. The mixture was stirred until complete dissolution observed. The test compound (approx. 1-3 mg) was placed in 5.00 mL of FaSSIF solution. Samples of the solution with the test compound were taken after 24 hours in at 37° C. (oven-controlled temperature).
as §1, with “36.78” for “10.41”, “gastric” for “intestinal”, “(FaSSGF)” for “(FaSSIF)”, “961.9” for “240.3”, “60” for “560”, “FaSSGF” for “FaSSIF”
UPLC-MS analysis of the samples taken at 24 hours was carried out on a Waters Acquity UPLC system consisting of an Acquity I-Class Sample Manager-FL, Acquity I-Class Binary Solvent Manager and an Acquity UPLC Column Manager. UV detection was afforded using an Acquity UPLC PDA detector (scanning from 210 to 400 nm), whilst mass detection was achieved using an Acquity QDa detector (mass scanning from 100-1250 Da; positive and negative modes simultaneously), and ELS detection was achieved using an Acquity UPLC ELS Detector. A Waters Acquity UPLC BEH C18 column (2.1 Å˜50 mm, […]) was used to separate the analytes. Samples were prepared by dissolution (with or without sonication) into 1 mL of 50% (v/v) MeCN in water. The resulting solutions were then filtered through a […] syringe filter before submitting for analysis. All of the solvents, including formic acid and 36% ammonia solution, were purchased as the HPLC grade.

[2] = Indirubin solubility in biorelevant media (FaSSIF, FaSSGF), HPLC; type: physicochemical; settings: FaSSGF and FaSSIF
Description: Biorelevant media was prepared as per the supplier's (Biorelevant) method, using FaSSIF/FeSSIF/FaSSGF powders. In brief, FaSSGF media was prepared using 0.06 g/L FaSSIF/FeSSIF/FaSSGF powder in 2 g/L NaCl solution, pH adjusted to 1.6 with 1N HCl. FaSSIF media was prepared with 2.24 g/L FaSSIF/FeSSIF/FaSSGF powder in sodium phosphate buffer, pH adjusted to 6.5 with 1N NaOH. (Sodium phosphate buffer prepared as a 0.42 g/L NaOH, 3.95 g/L NaH2PO4·H2O, 6.19 g/L NaCl solution).
Solubility assessments were performed as follows. An individual flask was prepared for each media and time point. Flasks were placed in a shaking water bath kept at 37° C. Flasks were removed from the bath at specified time points of 1 hour, 4 hours and 24 hours, allowed to cool, and an aliquot taken and filtered.

[3] = molecular target: T1, AhR (Rattus norvegicus, UniProt P41738); assay: AhR/arnt-luciferase reporter assay in rat H4IIE cells
T1 sequence (P41738 10-853): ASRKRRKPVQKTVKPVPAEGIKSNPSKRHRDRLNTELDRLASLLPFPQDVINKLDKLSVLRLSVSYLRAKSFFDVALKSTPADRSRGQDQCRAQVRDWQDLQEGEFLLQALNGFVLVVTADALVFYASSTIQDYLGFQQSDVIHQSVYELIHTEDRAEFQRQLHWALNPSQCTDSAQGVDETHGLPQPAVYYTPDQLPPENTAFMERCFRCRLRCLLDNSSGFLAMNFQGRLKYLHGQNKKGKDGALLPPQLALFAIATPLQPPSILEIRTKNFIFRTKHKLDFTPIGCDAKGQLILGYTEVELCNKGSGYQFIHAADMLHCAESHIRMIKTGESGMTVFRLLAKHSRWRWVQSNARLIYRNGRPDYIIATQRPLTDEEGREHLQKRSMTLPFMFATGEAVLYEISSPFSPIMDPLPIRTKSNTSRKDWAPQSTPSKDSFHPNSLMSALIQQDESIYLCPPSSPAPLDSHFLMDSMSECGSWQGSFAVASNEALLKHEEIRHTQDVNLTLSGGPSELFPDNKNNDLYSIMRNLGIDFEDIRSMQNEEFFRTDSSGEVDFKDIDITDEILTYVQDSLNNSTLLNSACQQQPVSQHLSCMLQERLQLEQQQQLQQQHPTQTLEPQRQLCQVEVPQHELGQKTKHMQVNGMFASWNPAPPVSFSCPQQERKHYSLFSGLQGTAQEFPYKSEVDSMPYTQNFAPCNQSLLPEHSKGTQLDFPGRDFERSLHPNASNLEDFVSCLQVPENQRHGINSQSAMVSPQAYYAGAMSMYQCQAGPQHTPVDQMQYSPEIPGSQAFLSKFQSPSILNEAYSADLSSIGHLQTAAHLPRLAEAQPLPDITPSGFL
Description: TCDD and MeBio were included in the study as positive controls. These were added into cell culture media containing charcoal-stripped fetal bovine serum to produce a 2× stock and then added to the reporter cells. The reporter cells were human Huh7 cells or Rat H4IIE cell lines with the native AhR and an AhR/arnt-Luciferase reporter vector. The final concentration of DM50 was 0.1%. Cells were incubated for 22 hours at 37° C. prior to addition of the luciferase detection reagent and measurement of activity in relative luminescence units.

Structure (SMILES) | Fraction (percent) of indirubin ([1]; FaSSGF 37° C. 24 h) | Fraction (percent) of starting material (SM) ([1]; FaSSGF 37° C. 24 h) | Fraction (percent) of indirubin ([1]; FaSSIF 37° C. 24 h) | Fraction (percent) of starting material (SM) ([1]; FaSSIF 37° C. 24 h) | Solubility in the simulated fluids [2] | EC50 [3]
CN1CCN(CCNC(=O)N2C(=O)/C(=C3\Nc4ccccc4C3=O)c3ccccc32)CC1 | 2% | 93% | 0% | 100% | – | –
CCN(CC)CN1C(=O)/C(=C2\Nc3ccccc3C2=O)c2ccccc21 [Compound 9] | – | – | – | – | soluble in the simulated fluids | –
O=C1/C(=C2/C(=O)N(C(=O)NCCNS(=O)(=O)C(F)(F)F)c3ccccc32)Nc2ccccc21 | 1% | 93% | 0% | 100% | – | –
O=C1Nc2ccccc2/C1=C1/Nc2ccccc2C1=O [indirubin, reference compound] | – | – | – | – | – | ~654 nM
CCOC(=O)N1C(=O)/C(=C2\Nc3ccccc3C2=O)c2ccccc21 | 0% | 100% | 0% | 100% | – | –
O=C1/C(=C2/C(=O)N(C(=O)NC3CCOCC3)c3ccccc32)Nc2ccccc21 [drawing 236] | 13% | 68% | 10% | 57% | – | –
CC(=O)OCN1C(=O)/C(=C2\Nc3ccccc3C2=O)c2ccccc21 | 3% | 94% | 0% | 100% | – | –
CN1CCN(CN2C(=O)/C(=C3\Nc4ccccc4C3=O)c3ccccc32)CC1 [drawing 222] | – | – | 19% | 50% | – | –
CN1CCC(NC(=O)N2C(=O)/C(=C3\Nc4ccccc4C3=O)c3ccccc32)CC1=O (stereo not shown) | 0% | 100% | 0% | 100% | – | –
O=C1/C(=C2/C(=O)N(C(=O)NCCNS(=O)(=O)c3ccc([N+](=O)[O-])cc3)c3ccccc32)Nc2ccccc21 | 0% | 100% | 0% | 100% | – | –
Cl.NCCNC(=O)N1C(=O)/C(=C2\Nc3ccccc3C2=O)c2ccccc21 | 0% | 100% | 0% | 100% | – | –
CS(=O)(=O)NCCNC(=O)N1C(=O)/C(=C2\Nc3ccccc3C2=O)c2ccccc21 | 0% | 100% | 0% | 100% | – | –
